Results taken from ChEMBL document CHEMBL5303709, “ECBD screening data for assay EOS300041” (2022).
Peptide text beside a SMILES is read from it. * marks the point of attachment. Cbz = O=C(OCc1ccccc1)*

Target: Replicase polyprotein 1ab (Severe acute respiratory syndrome coronavirus 2) (UniProt P0DTD1)
Assay: Inhibition of SARS-CoV-2 3CL-Pro proteolytic cleavage of a dual-labeled substrate by FRET.
Type: functional
Parameters: assay stage

First: Nc1ccc(O)c2ncccc12
Second: O=c1c2ccccc2sn1-c1ccccc1
The IC50 relative of the first is higher: 2.05 µM for the first, less than 0.02 µM for the second.

S=C=Nc1cccc(NC(=S)NCCCCNC(=S)Nc2cccc(N=C=S)c2)c1 and O=C(Nc1ccccc1)Nc1ccc(-c2ccc(C(=O)[C@@H]3CCC[C@H]3C(=O)O)cc2)cc1 cannot be ordered by IC50 relative: greater than 20 µM for the first, greater than 20 µM for the second.

Going from COc1cc(N(C)C)cc(CN(C)CCc2ccc([N+](=O)[O-])cc2)c1O to CC(Cc1ccc(O)c(O)c1)C(C)Cc1ccc(O)c(O)c1 (configuration not stated), the IC50 relative rises from 6.09 µM to greater than 20 µM.

Cn1sc(=O)n(Cc2ccccc2)c1=O and Cc1ccc(-n2sc(=O)n(Cc3ccc(F)cc3)c2=O)cc1 cannot be ordered by IC50 relative: less than 0.02 µM for the first, less than 0.02 µM for the second.

Going from Sc1nnc(Nc2ccccc2)s1 to Sc1nnnn1-c1ccccc1, the IC50 relative rises from 0.39 µM to 2.36 µM (6.1-fold).

Going from O=c1c(O)cccc2cc(O)c(O)c(O)c12 to O=c1cc(-c2ccccc2)oc2cc(O)c(O)c(O)c12, the IC50 relative rises from 6.98 µM to greater than 20 µM.

First: CC(C)C[C@@H](C=O)NC(=O)[C@H](CC(C)C)NC(=O)[C@H](CC(C)C)NC(=O)OCc1ccccc1 (Cbz-Leu-Leu-Leu-aldehyde)
Second: COC(=O)CC[C@H](NC(=O)[C@H](CC(=O)OC)NC(=O)OCc1ccccc1)C(=O)N[C@H](C(=O)N[C@@H](CC(=O)OC)C(=O)CF)C(C)C
The IC50 relative of the first is higher: greater than 20 µM for the first, less than 0.02 µM for the second.

Cc1ccc(C)c(-n2sc3cc(F)ccc3c2=O)c1 and Cc1ccc(-n2sc3ccccc3c2=O)cc1 cannot be ordered by IC50 relative: less than 0.02 µM for the first, less than 0.02 µM for the second.

Cc1cc(-c2ccc(/N=N/c3ccc4c(S(=O)(=O)O)cc(S(=O)(=O)O)c(N)c4c3O)c(C)c2)ccc1/N=N/c1ccc2c(S(=O)(=O)O)cc(S(=O)(=O)O)c(N)c2c1O and COc1ncc(-c2ccc3nccc(-c4ccnnc4)c3c2)cc1NS(=O)(=O)c1ccc(F)cc1F cannot be ordered by IC50 relative: greater than 20 µM for the first, greater than 20 µM for the second.

COc1ccc2[nH]c3c(S)ncnc3c2c1 and COc1ccc2[nH]c(S)nc2c1 cannot be ordered by IC50 relative: greater than 20 µM for the first, greater than 20 µM for the second.

CCN(CC)S(=O)(=O)c1cccc(-n2sc3ccccc3c2=O)c1 and CN(C)S(=O)(=O)c1cccc(-n2sc3ccccc3c2=O)c1 cannot be ordered by IC50 relative: less than 0.02 µM for the first, less than 0.02 µM for the second.

Compared with CCOc1cc(C(Nc2cc(C)ccn2)c2ccc3cccnc3c2O)ccc1OC (configuration not stated), CCN1CCN(C(c2ccc(C(F)(F)F)cc2)c2ccc3cccnc3c2O)CC1 (configuration not stated) is 1.8-fold lower in IC50 relative: 0.269 µM for the first, 0.152 µM for the second.

Compared with CC(C)(C)OC(=O)NCCc1nnc(S(=O)(=O)Cc2ccc(Cl)cc2Cl)o1, Cc1ccc(S(=O)(=O)N[C@@H](Cc2ccccc2)C(=O)CCl)cc1 is 3.1-fold lower in IC50 relative: 4.22 µM for the first, 1.37 µM for the second.

NC(Cc1cc(O)c(O)cc1O)C(=O)O (racemic) and O=C(O)C1=CC(=C(c2ccc(O)c(C(=O)O)c2)c2ccc(O)c(C(=O)O)c2)C=CC1=O cannot be ordered by IC50 relative: greater than 20 µM for the first, greater than 20 µM for the second.

Going from CCN(CC)C(=S)S to CCOC(=O)c1c(N)sc(-c2ccccc2)c1C, the IC50 relative falls from greater than 20 µM to 3.28 µM.

Going from O=C(O)[C@@H](S)[C@@H](S)C(=O)O to O=C(CCl)c1ccccc1, the IC50 relative falls from 6.74 µM to 0.19 µM (35-fold).

Going from CN1CCN(C(=O)c2ccc(-c3ccc4c(C=O)c(O)ccc4c3)s2)CC1 to O=C(c1ccc(Cl)cc1)c1cc([N+](=O)[O-])ccc1N1CCOCC1, the IC50 relative rises from 1.94 µM to greater than 20 µM.

Cc1c(-c2ccc(N3CCc4cccc(C(=O)Nc5nc6ccccc6s5)c4C3)nc2C(=O)O)cnn1CC12CC3CC(CC(C3)C1)C2 and O=C(NC(=S)N1CCCc2ccccc21)c1ccccc1 cannot be ordered by IC50 relative: greater than 20 µM for the first, greater than 20 µM for the second.

COc1ccc2[nH]c([S+]([O-])Cc3ncc(C)c(OC)c3C)nc2c1 (configuration not stated) and COc1ccnc(C[S+]([O-])c2nc3cc(OC(F)F)ccc3[nH]2)c1OC (configuration not stated) cannot be ordered by IC50 relative: greater than 20 µM for the first, greater than 20 µM for the second.

Sc1nnc(-c2ccccc2Cl)o1 and CC1=CC(=O)c2ccccc2C1=O cannot be ordered by IC50 relative: greater than 20 µM for the first, greater than 20 µM for the second.

Going from [O-][n+]1ccccc1S to O=[N+]([O-])c1ccc(Sc2cccc[n+]2[O-])c2nonc12, the IC50 relative falls from 0.0487 µM to less than 0.02 µM.

Compared with Nc1nc(S)c2ncn(C3OC(CO)C(O)C3O)c2n1 (configuration not stated), CCCCn1c(NC(=O)c2cccs2)c(C#N)c2nc3ccccc3nc21 is higher in IC50 relative: 1.07 µM for the first, greater than 20 µM for the second.

Compared with O=C(/C=C/c1ccc2ccccc2n1)c1ccncc1, O=C(c1cccs1)c1no[n+]([O-])c1C(=O)c1cccs1 is lower in IC50 relative: greater than 20 µM for the first, 11 µM for the second.

Going from O=C1C(Cl)=C(Cl)C(=O)C(Cl)=C1Cl to O=C(O)c1c(Cl)c(Cl)c(Cl)c(Cl)c1-c1c2cc(I)c(=O)c(I)c-2oc2c(I)c(O)c(I)cc12, the IC50 relative rises from less than 0.02 µM to greater than 20 µM.

C[C@H]1COC2=C1C(=O)C(=O)c1c2ccc2c1CCCC2(C)C and Cc1cc(-c2ccc(/C=C3/S/C(=N\c4ccc(Cl)c(C(=O)O)c4)NC3=O)o2)c([N+](=O)[O-])cc1C cannot be ordered by IC50 relative: greater than 20 µM for the first, greater than 20 µM for the second.

First: Oc1cc2c(cc1C(c1ccc(C(F)(F)F)cc1)N1CCOCC1)OCO2 (configuration not stated)
Second: S=C=NCc1ccccc1
The IC50 relative of the first is lower: 0.545 µM for the first, greater than 20 µM for the second.
